Data: PMC7026418, “The kinase polypharmacology landscape of clinical PARP inhibitors” (Scientific Reports, 2020)
Read-outs that look alike come from different tables or passages of the source.

Key:
Test in all cases: biochemical
ACVRL1 = ACVRL1 (Homo sapiens, UniProt P37023); parameters: DiscoveRx KINOMEscan active site-directed competition binding; percent of control kinase bound to immobilised ligand
LATS1 = target: T1, LATS1 (Homo sapiens, UniProt O95835); parameters: DiscoveRx KINOMEscan active site-directed competition binding; percent of control kinase bound to immobilised ligand
T1 sequence (O95835 1-1130): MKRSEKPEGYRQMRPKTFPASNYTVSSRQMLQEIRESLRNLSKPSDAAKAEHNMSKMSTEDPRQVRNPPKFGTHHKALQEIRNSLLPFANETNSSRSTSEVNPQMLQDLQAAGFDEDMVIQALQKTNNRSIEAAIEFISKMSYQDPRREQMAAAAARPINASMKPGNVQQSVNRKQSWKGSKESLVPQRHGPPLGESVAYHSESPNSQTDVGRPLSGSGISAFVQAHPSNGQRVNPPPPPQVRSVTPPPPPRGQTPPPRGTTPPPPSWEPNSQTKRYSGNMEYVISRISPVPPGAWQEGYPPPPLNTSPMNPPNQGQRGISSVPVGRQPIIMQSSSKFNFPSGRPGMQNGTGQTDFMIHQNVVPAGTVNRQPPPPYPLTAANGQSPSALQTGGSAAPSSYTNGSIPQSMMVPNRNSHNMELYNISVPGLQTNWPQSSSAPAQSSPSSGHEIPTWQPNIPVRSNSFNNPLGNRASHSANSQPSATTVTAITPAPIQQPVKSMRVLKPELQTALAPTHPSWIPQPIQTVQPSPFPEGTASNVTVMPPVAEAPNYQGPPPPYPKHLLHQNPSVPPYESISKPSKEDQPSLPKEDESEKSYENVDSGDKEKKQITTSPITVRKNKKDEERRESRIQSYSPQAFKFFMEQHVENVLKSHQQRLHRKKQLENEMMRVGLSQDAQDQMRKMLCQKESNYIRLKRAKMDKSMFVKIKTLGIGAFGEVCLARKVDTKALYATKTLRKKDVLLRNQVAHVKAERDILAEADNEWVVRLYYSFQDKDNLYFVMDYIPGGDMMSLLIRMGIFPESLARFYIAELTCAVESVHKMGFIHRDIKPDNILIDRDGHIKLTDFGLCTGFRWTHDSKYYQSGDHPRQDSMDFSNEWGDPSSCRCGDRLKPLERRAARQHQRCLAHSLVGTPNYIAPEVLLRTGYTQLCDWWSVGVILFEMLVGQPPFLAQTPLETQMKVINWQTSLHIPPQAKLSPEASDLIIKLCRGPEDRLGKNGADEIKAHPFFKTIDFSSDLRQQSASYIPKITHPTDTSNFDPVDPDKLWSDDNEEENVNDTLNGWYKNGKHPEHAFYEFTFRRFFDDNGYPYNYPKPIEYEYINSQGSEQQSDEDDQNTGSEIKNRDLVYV

MLCK = target: T2, MLCK (Homo sapiens, UniProt Q32MK0); parameters: DiscoveRx KINOMEscan active site-directed competition binding; percent of control kinase bound to immobilised ligand
T2 construct: gene MYLK3
T2 sequence (Q32MK0 1-819): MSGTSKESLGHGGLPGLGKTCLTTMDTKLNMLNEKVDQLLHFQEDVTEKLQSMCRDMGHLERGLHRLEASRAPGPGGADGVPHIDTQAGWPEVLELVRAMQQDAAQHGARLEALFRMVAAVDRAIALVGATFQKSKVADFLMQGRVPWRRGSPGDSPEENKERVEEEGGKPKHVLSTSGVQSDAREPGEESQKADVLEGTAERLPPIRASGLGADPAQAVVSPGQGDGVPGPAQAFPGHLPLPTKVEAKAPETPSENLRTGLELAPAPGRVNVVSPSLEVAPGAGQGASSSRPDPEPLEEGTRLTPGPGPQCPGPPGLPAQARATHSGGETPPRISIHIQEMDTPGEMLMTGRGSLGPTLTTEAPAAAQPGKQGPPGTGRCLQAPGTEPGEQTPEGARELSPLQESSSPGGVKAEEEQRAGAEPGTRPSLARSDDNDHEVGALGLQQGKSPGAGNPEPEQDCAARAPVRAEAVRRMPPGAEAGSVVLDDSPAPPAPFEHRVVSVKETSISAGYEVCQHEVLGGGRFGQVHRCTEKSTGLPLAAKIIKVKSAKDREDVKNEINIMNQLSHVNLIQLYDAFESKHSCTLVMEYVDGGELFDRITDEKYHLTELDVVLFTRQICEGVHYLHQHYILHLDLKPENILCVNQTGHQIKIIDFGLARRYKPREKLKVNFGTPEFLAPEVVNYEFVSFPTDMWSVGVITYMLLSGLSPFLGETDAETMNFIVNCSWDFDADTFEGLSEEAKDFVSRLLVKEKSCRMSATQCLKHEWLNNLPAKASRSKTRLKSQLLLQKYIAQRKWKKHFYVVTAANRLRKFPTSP

CIT = CIT (Homo sapiens, UniProt O14578); parameters: Reaction Biology HotSpot radiometric 33P-ATP catalytic assay at Km ATP; percent inhibition versus DMSO, mean n=2; conditions: Km ATP
Description: (§1) Unreacted phosphate is removed via washing the filters.

HIPK3 = HIPK3 (Homo sapiens, UniProt Q9H422); parameters: Reaction Biology HotSpot radiometric 33P-ATP catalytic assay at Km ATP; percent inhibition versus DMSO, mean n=2; conditions: Km ATP
Sequence of HIPK3 (Q9H422 whole entry): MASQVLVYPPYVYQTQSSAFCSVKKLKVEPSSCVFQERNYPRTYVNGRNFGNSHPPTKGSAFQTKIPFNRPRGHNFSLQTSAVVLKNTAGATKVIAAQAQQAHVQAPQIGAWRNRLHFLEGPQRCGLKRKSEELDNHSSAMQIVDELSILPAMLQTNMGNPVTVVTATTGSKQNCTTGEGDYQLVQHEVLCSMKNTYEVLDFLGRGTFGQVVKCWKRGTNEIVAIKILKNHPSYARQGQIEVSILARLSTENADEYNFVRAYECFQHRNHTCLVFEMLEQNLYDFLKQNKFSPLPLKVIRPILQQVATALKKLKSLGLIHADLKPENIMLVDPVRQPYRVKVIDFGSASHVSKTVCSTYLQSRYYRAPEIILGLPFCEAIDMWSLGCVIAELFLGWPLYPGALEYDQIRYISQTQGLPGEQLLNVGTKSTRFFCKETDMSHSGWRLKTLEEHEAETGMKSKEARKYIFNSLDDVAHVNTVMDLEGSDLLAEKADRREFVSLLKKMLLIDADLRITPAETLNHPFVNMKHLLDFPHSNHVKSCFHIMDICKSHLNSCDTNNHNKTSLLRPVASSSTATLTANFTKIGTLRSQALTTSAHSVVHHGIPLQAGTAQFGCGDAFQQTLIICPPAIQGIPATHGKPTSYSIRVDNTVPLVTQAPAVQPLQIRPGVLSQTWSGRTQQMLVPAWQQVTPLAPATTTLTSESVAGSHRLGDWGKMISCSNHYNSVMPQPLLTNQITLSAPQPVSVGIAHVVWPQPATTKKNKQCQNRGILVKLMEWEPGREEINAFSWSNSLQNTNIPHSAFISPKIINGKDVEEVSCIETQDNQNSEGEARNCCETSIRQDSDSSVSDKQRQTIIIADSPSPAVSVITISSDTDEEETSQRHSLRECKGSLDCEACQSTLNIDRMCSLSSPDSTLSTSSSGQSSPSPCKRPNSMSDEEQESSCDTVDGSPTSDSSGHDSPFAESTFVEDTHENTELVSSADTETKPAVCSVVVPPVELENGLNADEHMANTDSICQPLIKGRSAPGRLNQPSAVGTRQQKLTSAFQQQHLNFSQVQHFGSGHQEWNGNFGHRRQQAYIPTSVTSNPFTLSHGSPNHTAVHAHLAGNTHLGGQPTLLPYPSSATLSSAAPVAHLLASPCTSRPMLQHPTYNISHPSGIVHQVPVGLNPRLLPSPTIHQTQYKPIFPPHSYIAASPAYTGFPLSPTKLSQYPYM
Description: as §1

CSNK2A1 = CSNK2A1 (Homo sapiens, UniProt P68400); parameters: Reaction Biology HotSpot radiometric 33P-ATP catalytic assay at Km ATP; percent inhibition versus DMSO, mean n=2; conditions: Km ATP
Sequence of CSNK2A1 (P68400 whole entry): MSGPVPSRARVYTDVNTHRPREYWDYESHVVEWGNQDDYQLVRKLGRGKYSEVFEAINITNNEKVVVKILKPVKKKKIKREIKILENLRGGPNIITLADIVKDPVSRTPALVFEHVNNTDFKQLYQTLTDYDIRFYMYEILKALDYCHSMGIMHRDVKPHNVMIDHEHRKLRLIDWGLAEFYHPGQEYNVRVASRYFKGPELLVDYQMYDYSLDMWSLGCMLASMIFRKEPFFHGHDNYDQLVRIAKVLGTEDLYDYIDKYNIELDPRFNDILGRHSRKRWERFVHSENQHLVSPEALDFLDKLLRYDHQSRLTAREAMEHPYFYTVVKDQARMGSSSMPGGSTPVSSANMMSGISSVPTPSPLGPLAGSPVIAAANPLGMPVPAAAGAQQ
Description: as §1

HIPK2 = HIPK2 (Homo sapiens, UniProt Q9H2X6); parameters: Reaction Biology HotSpot radiometric 33P-ATP catalytic assay at Km ATP; percent inhibition versus DMSO, mean n=2; conditions: Km ATP
Sequence of HIPK2 (Q9H2X6 whole entry): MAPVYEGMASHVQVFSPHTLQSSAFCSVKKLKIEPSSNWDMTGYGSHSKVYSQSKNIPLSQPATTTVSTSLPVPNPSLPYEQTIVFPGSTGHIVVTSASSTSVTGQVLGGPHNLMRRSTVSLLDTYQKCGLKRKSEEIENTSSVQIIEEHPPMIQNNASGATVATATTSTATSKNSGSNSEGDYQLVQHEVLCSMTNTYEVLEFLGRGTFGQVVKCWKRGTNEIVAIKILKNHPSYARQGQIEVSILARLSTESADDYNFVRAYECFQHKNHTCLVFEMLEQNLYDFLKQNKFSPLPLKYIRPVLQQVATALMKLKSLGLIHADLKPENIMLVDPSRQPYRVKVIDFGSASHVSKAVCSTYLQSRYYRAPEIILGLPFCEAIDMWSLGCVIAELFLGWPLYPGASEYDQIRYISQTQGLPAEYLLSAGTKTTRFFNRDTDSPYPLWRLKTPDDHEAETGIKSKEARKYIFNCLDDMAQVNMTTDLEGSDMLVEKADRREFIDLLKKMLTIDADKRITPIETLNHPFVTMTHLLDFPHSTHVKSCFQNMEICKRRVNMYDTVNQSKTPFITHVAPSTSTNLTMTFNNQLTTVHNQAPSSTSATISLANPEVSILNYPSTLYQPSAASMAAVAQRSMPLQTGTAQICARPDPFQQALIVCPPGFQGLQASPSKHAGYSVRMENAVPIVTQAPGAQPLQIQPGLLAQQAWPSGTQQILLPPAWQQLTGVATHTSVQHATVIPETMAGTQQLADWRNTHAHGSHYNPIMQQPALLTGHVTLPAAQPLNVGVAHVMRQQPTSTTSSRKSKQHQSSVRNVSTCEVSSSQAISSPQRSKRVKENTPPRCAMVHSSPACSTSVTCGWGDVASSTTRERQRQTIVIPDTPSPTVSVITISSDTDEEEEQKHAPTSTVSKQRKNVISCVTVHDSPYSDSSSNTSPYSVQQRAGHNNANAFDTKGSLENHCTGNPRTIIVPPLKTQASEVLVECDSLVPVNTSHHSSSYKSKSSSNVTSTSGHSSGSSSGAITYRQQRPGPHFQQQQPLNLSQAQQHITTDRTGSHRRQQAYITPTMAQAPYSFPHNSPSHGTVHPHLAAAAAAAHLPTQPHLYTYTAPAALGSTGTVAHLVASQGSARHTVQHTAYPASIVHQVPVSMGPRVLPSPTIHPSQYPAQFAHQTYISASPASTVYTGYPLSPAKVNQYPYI
Description: as §1

CSNK2A2 = CSNK2A2 (Homo sapiens, UniProt P19784); parameters: Reaction Biology HotSpot radiometric 33P-ATP catalytic assay at Km ATP; percent inhibition versus DMSO, mean n=2; conditions: Km ATP
Sequence of CSNK2A2 (P19784 whole entry): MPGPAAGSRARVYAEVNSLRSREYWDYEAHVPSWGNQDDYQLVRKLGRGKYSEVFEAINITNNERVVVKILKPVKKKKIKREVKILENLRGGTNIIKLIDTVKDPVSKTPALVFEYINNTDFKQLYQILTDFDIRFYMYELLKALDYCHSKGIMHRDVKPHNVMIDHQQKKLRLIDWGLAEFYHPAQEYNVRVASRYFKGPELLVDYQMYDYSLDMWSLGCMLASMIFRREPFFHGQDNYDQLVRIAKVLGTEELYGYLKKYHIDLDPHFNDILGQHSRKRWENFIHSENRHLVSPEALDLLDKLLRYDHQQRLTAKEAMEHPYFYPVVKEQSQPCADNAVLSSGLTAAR
Description: as §1

[1] = read-out: Talazoparib (BMN 673) / %Ctrl @ 10000nM
[2] = read-out: Olaparib / %Ctrl @ 10000nM
[3] = read-out: Rucaparib / %Ctrl @ 10000nM, binding competition, % of control
[4] = read-out: Niraparib (MK-4827) / %Ctrl @ 10000nM

Sequence of ACVRL1 (P37023 whole entry): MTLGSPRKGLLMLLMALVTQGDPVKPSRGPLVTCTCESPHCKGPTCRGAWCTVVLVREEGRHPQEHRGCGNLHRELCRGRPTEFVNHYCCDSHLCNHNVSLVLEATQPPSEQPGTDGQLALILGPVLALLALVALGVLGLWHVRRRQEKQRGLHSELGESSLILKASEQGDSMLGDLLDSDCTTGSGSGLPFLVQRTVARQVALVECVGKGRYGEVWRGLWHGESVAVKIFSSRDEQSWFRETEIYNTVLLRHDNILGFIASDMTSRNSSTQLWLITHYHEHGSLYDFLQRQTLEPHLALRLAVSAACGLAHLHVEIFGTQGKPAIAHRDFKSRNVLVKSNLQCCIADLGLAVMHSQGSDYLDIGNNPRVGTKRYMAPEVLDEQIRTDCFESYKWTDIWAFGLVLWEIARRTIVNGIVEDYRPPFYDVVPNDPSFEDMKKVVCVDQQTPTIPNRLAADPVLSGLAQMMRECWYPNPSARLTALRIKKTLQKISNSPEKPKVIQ

Q: How did the percent of control binding at 10 µM (ACVRL1; [1]) turn out when Cn1ncnc1[C@H]1c2n[nH]c(=O)c3cc(F)cc(c23)N[C@@H]1c1ccc(F)cc1 [Talazoparib] was run?
A: The percent of control binding at 10 µM was 84%.

Q: What about the percent of control binding at 10 µM (LATS1; [1]) of the same molecule?
A: Its percent of control binding at 10 µM is 92%.

Q: What about the percent of control binding at 10 µM (MLCK; [1]) of the same molecule?
A: Its percent of control binding at 10 µM is 98%.

Q: O=C(c1cc(Cc2n[nH]c(=O)c3ccccc23)ccc1F)N1CCN(C(=O)C2CC2)CC1 [Olaparib] was tested. Which percent of control binding at 10 µM (ACVRL1; [2]) did it give?
A: Its percent of control binding at 10 µM is 97%.

Q: What about the percent of control binding at 10 µM (LATS1; [2]) of the same molecule?
A: Its percent of control binding at 10 µM is 78%.

Q: And the percent of control binding at 10 µM (MLCK; [2])?
A: The percent of control binding at 10 µM was 95%.

Q: How did the percent of control binding at 10 µM (ACVRL1; [3]) turn out when CNCc1ccc(-c2[nH]c3cc(F)cc4c3c2CCNC4=O)cc1 [Rucaparib] was run?
A: The percent of control binding at 10 µM was 100%.

Q: What about the percent of control binding at 10 µM (LATS1; [3]) of the same molecule?
A: Its percent of control binding at 10 µM is 75%.

Q: And the percent of control binding at 10 µM (MLCK; [3])?
A: The percent of control binding at 10 µM was 53%.

Q: And the inhibition at 1 µM (CIT)?
A: The inhibition at 1 µM was 15%.

Q: And the inhibition at 1 µM (HIPK3)?
A: Its inhibition at 1 µM is -12%.

Q: And the inhibition at 1 µM (CSNK2A1)?
A: The inhibition at 1 µM was 21%.

Q: And the inhibition at 1 µM (HIPK2)?
A: The inhibition at 1 µM was -6%.

Q: What about the inhibition at 1 µM (CSNK2A2) of the same molecule?
A: Its inhibition at 1 µM is 17%.

Q: With NC(=O)c1cccc2cn(-c3ccc([C@@H]4CCCNC4)cc3)nc12 [Niraparib] as the molecule, how does the percent of control binding at 10 µM (ACVRL1; [4]) read?
A: The percent of control binding at 10 µM was 98%.

Q: What about the percent of control binding at 10 µM (LATS1; [4]) of the same molecule?
A: Its percent of control binding at 10 µM is 36%.

Q: What about the percent of control binding at 10 µM (MLCK; [4]) of the same molecule?
A: Its percent of control binding at 10 µM is 92%.

Q: What about the inhibition at 1 µM (CIT) of the same molecule?
A: The inhibition at 1 µM was 10%.

Q: What about the inhibition at 1 µM (HIPK3) of the same molecule?
A: Its inhibition at 1 µM is 5%.

Q: What about the inhibition at 1 µM (CSNK2A1) of the same molecule?
A: The inhibition at 1 µM was 12%.

Q: And the inhibition at 1 µM (HIPK2)?
A: The inhibition at 1 µM was 23%.

Q: And the inhibition at 1 µM (CSNK2A2)?
A: The inhibition at 1 µM was -1%.
